Experimental data published in publication PMC10353390, “Biological and Structural Analyses of New Potent Allosteric Inhibitors of HIV-1 Integrase” (Antimicrobial Agents and Chemotherapy, 2023).
Read-outs that look alike come from different tables or passages of the source.

Columns and labels:
[1] = system: recombinant NL4-3 viruses with polymorphisms at IN positions 124 and 125; assay: Multiple-round infection of MT4 cells with recombinant NL4-3 viruses polymorphic at IN positions 124 and 125; format: cell-based, HIV-1
Source text: Located on the HIV-1 IN CCD dimerization interface, the principal INLAI binding pocket overlaps with a hot spot of amino acid sequence polymorphism involving IN residues 124 and 125 ([16]). To test if the new INLAIs maintained antiviral activity against major polymorphisms, we introduced all major combinations of residues found in circulating HIV-1 strains at positions 124 and 125 into NL4-3 HIV-1 molecular clone. In total, we evaluated 15 such combinations that collectively covered 98% of all HIV-1 clade polymorphisms involving these positions ([48]). To gauge effects on the antiviral activity, we calculated the EC50 fold change (FC) relative to wild type NL4-3 HIV-1 strain that features Thr124 and Thr125 (TT; specific polymorphisms are referred to by a single letter amino acid code).
(§1) MT4 cells growing exponentially at the density of 10^6/mL were infected with HIV-1 strain NL4-3 at a multiplicity of infection (MOI) of 0.001 for 2 h in the presence of different concentrations of compounds, and the CellTiter-Glo luminescent reagent (Promega) was used to quantify cell viability as described previously ([12]).

[2] = system: lab-adapted and clinical HIV-1 isolates; assay: Infection assays in primary T CD4+ lymphocytes; format: cell-based; conditions: Human immunodeficiency virus 1, Lymphocyte
[3] = Cytotoxicity assay in MT4 cells; format: cell-based; conditions: human, MT4 cells (proliferating human T-cell line), CellTiter-Glo
Source text: Growth inhibition was monitored in a proliferating human T-cell line (MT4) with different concentrations of compounds, using the CellTiter-Glo luminescent reagent (Promega), as previously described ([12]).

[4] = system: NL4-3 HIV-1 strain; assay: Multiple-round infection assay in MT4 cells, NL4-3; format: cell-based; conditions: MT4 cells
[5] = system: HIV-1 strains resistant to INSTIs, NRTIs, NNRTIs or PIs; format: cell-based
Description: To this end, we used both recombinant viruses constructed by introducing described drug resistance mutations into NL4-3 HIV-1 clone as well as drug-resistant clinical HIV-1 isolates.
as §1

[6] = system: HXB2 HIV-1 strain; assay: Multiple-round infection assay in MT4 cells, HXB2; format: cell-based; conditions: Human immunodeficiency virus 1, HXB2; multiple-round infection, MT4 cells; mean ± SD, n > 5; read-out: EC50 HXB2
Description: Antiretroviral activity of BDM-2 and its analogs was first evaluated in lymphoblastoid cell line MT4 and in primary human T lymphocytes using NL4-3 and HXB2 laboratory HIV-1 isolates.
as §1

[7] = system: primary HIV-1 isolates with polymorphisms at IN positions 124 and 125; assay: Multiple-round infection of MT4 cells with primary HIV-1 isolates polymorphic at IN positions 124 and 125; format: cell-based; conditions: primary isolate
Description: Next, we evaluated the potency of the BDM-2 series of INLAIs against several primary HIV-1 isolates with polymorphisms at IN positions 124 and 125.
as §1

[8] = system: VSV-G-pseudotyped NL4-3Δenv-luc; assay: microbe, parasite or virus in culture; format: cell-based, HIV-1
[9] = INSTI-resistant, NL4-3 background
[10] = INSTI-resistant, primary patient-derived strain

With C[C@@H]1CCO[C@H]2Cn3cc(C(=O)NCc4ccc(F)cc4F)c(=O)c(O)c3C(=O)N12 [DTG, dolutegravir, reference compound] the “Fold change in EC50 relative to parental NL4-3, AA” value ([1]; recombinant NL4-3, IN 124/125 AA) was 1, the “Fold change in EC50 relative to parental NL4-3, AM” value ([1]; recombinant NL4-3, IN 124/125 AM) was 2 and the “Fold change in EC50 relative to parental NL4-3, AT” value ([1]; recombinant NL4-3, IN 124/125 AT) was 1. For the same molecule, the “Fold change in EC50 relative to parental NL4-3, AV” value ([1]; recombinant NL4-3, IN 124/125 AV) was 2, the “Fold change in EC50 relative to parental NL4-3, GA” value ([1]; recombinant NL4-3, IN 124/125 GA) was 2 and the “Fold change in EC50 relative to parental NL4-3, GT” value ([1]; recombinant NL4-3, IN 124/125 GT) was 2. For the same molecule, the “Fold change in EC50 relative to parental NL4-3, NA” value ([1]; recombinant NL4-3, IN 124/125 NA) was 1, the “Fold change in EC50 relative to parental NL4-3, NT” value ([1]; recombinant NL4-3, IN 124/125 NT) was 1 and the “Fold change in EC50 relative to parental NL4-3, NV” value ([1]; recombinant NL4-3, IN 124/125 NV) was 2. For the same molecule, the “Fold change in EC50 relative to parental NL4-3, SA” value ([1]; recombinant NL4-3, IN 124/125 SA) was 1, the “Fold change in EC50 relative to parental NL4-3, ST” value ([1]; recombinant NL4-3, IN 124/125 ST) was 2 and the “Fold change in EC50 relative to parental NL4-3, TA” value ([1]; recombinant NL4-3, IN 124/125 TA) was 1. The “Fold change in EC50 relative to parental NL4-3, TM” value ([1]; recombinant NL4-3, IN 124/125 TM) was 2, the “Fold change in EC50 relative to parental NL4-3, TV” value ([1]; recombinant NL4-3, IN 124/125 TV) was 2 and the EC50 ([2]; read-out: EC50 33913N (B)) was 0.35 ± 0.42 nM. The EC50 ([2]; read-out: EC50 HXB2 (B)) was 0.17 ± 0.01 nM, the EC50 ([2]; read-out: EC50 KER2008 (A)) was 0.4 ± 0.21 nM and the EC50 ([2]; read-out: EC50 NL4-3 (B)) was 0.53 ± 0.16 nM. The EC50 ([2]; read-out: EC50 NP1525 (CRF01_AE)) was 0.21 ± 0.09 nM, the EC50 ([2]; read-out: EC50 NP1538 (B)) was 0.29 ± 0.13 nM and the CC50 [3] was 51 ± 28 µM. The EC90 ([4]; Human immunodeficiency virus 1, NL43, multiple-round infection, from dose response curves, read-out: EC90 NL4-3) was 6.3 ± 4.4 nM, the EC50 ([4]; Human immunodeficiency virus 1, NL43, multiple-round infection, mean ± SD, n > 5, read-out: EC50 NL4-3) was 2.7 ± 1.3 nM and the “Selectivity index CC50/EC50 NL4-3” value [4] was 18,888. For the same molecule, the “Fold change in EC50 relative to NL4-3, G140S” value [5, 9] was 0.6, the “Fold change in EC50 relative to NL4-3, G140S/Q148H” value [5, 9] was 2 and the “Fold change in EC50 relative to NL4-3, N155H” value [5, 9] was 0.3. The “Fold change in EC50 relative to NL4-3, Q148H” value [5, 9] was 0.3, the “Fold change in EC50 relative to NL4-3, Y143R” value [5, 9] was 0.4 and the “Fold change in EC50 relative to NL4-3, E92Q/N155H (pat.)” value [5, 10] was 1. For the same molecule, the “Fold change in EC50 relative to NL4-3, G140S/Q148H (pat.)” value [5, 10] was 3, the “Fold change in EC50 relative to NL4-3, T97A/N155H (pat.)” value [5, 10] was 3 and the “Fold change in EC50 relative to NL4-3, NLAY351717” value ([5]; NRTI-resistant clone) was 0.4. For the same molecule, the “Fold change in EC50 relative to NL4-3, NLAY351753” value ([5]; NRTI/NNRTI-resistant clone) was 1, the “Fold change in EC50 relative to NL4-3, K103N/Y181C” value ([5]; NRTI/NNRTIs group, NL4-3 background) was 0.3 and the “Fold change in EC50 relative to NL4-3, ARP-4595” value ([5]; PI-resistant virus) was 1. For the same molecule, the “Fold change in EC50 relative to NL4-3, ARP-4596” value ([5]; PI-resistant virus) was 0.5, the “Fold change in EC50 relative to NL4-3, ARP-11801” value ([5]; PI-resistant virus) was 1 and the “Fold change in EC50 relative to NL4-3, ARP-11803” value ([5]; PI-resistant virus) was 1. The “Fold change in EC50 relative to NL4-3, ARP-11807” value ([5]; PI-resistant virus) was 2, the “Fold change in EC50 relative to NL4-3, ARP-11808” value ([5]; PI-resistant virus) was 1 and the EC50 [6] was 1.9 ± 1 nM. The “Fold change in EC50 relative to parental NL4-3, CAM2BBY (CRF02)” value ([7]; IN 124/125 AA) was 1, the “Fold change in EC50 relative to parental NL4-3, E0836M4 (D)” value ([7]; IN 124/125 AA) was 2 and the “Fold change in EC50 relative to parental NL4-3, KER2008 (A)” value ([7]; IN 124/125 AA) was 1. The “Fold change in EC50 relative to parental NL4-3, NP1525 (CRF01)” value ([7]; IN 124/125 AA) was 2, the “Fold change in EC50 relative to parental NL4-3, NP1695 (CRF02)” value ([7]; IN 124/125 AA) was 2 and the “Fold change in EC50 relative to parental NL4-3, TZA125 (C)” value ([7]; IN 124/125 AA) was 2. The “Fold change in EC50 relative to parental NL4-3, KSM4030 (A)” value ([7]; IN 124/125 GA) was 2, the “Fold change in EC50 relative to parental NL4-3, vGA (C)” value ([7]; IN 124/125 GA) was 2 and the “Fold change in EC50 relative to parental NL4-3, 99ET14 (C)” value ([7]; IN 124/125 NA) was 2. The “Fold change in EC50 relative to parental NL4-3, NP1538 (B)” value ([7]; IN 124/125 NA) was 1, the “Fold change in EC50 relative to parental NL4-3, vNA_1 (B)” value ([7]; IN 124/125 NA) was 2 and the “Fold change in EC50 relative to parental NL4-3, vNA_2 (CRF02)” value ([7]; IN 124/125 NA) was 2. The “Fold change in EC50 relative to parental NL4-3, vNV (B)” value ([7]; IN 124/125 NV) was 1, the “Fold change in EC50 relative to parental NL4-3, vSA_1 (B)” value ([7]; IN 124/125 SA) was 1 and the “Fold change in EC50 relative to parental NL4-3, vSA_2 (CRF02)” value ([7]; IN 124/125 SA) was 2. For the same molecule, the “Fold change in EC50 relative to parental NL4-3, vTA_1 (B)” value ([7]; IN 124/125 TA) was 1, the “Fold change in EC50 relative to parental NL4-3, vTA_2 (CRF02)” value ([7]; IN 124/125 TA) was 1 and the “EC50 ratio (single/multiple-round infection)” value [8] was 0.16. The EC50 ([8]; Human immunodeficiency virus 1, NL43, MT4, read-out: EC50 in single-round infection) was 0.44 ± 0.13 nM.
